In data set [1] the target is T1, PPARγ LBD (Homo sapiens, UniProt P37231).
T1 construct: PPARγ LBD was expressed as N-terminal His-tagged proteins using a pET28 vector; His tag (N, cleaved yes); made in house; host or cells: E. coli BL21 DE3
T1 sequence (P37231 238-503 limits assumed): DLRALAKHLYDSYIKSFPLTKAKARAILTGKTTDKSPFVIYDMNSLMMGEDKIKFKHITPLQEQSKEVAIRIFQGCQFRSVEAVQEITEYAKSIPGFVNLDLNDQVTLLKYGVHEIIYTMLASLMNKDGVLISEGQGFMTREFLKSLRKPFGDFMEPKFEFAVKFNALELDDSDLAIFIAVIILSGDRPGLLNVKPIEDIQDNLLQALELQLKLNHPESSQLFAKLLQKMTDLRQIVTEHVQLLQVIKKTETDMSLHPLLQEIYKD
As to the kind of experiment: Isothermal titration calorimetry. Format: binding. The method, then: ITC experiments were performed at 22 °C by using a ITC200 microcalorimeter (MicroCal, Inc., Northampton, MA, USA). […] DMSO was added to the protein solution at the same percentage of the ligand solution (2%) for the experiment with SAP19. The protein solution (50 μM) was placed in the sample cell, and ligand solution (500 μM) was loaded into the syringe injector (PPARγ 40 μM and the ligand 400 μM for the experiment with 13-HODE) . The titrations involved 19 injections of 2 μL each at 150 s intervals. A reference titration of ligand into buffer was used to correct for heats of dilution. Thermodynamic data was processed with Origin 7.0 software (MicroCal). Fitting the isotherms with one-site binding model yealded the values of the association constant (Ka).

Data set [2] has as its target T1, PPARγ LBD. As to the kind of experiment: Surface plasmon resonance, PPARγ receptor/saponin or sapogenin interactions. The data set is classed as binding. The settings on record: for Kd: koff/kon; for affinity to the nuclear receptor: in words. (SPR reads the build-up and loss of mass on a sensor chip optically.)
Procedure: PPARγ LBD was expressed as N-terminal His-tagged proteins using a pET28 vector and then purified as previously described[40]. Briefly, freshly transformed E. coli BL21 DE3 were grown in LB medium with 30 μg of kanamycin/mL at 310 K to an OD of 0.6. […] Cells were harvested and resuspended in a 20 mL/liter culture of Buffer A (20 mM Tris, 150 mM NaCl, 10% glycerol, 1 mM Tris 2-carboxyethylphosphine HCl (TCEP), pH 8) in the presence of protease inhibitors (Complete Mini EDTA-free; Roche Applied Science). Cells were sonicated, and the soluble fraction was isolated by centrifugation (35,000 × g for 45 min). The supernatant was loaded onto a Ni^2+ -nitrilotriacetic acid column (GE Healthcare) and eluted with a gradient of imidazole 0–300 mM in Buffer A (batch method). The pure protein was identified by SDS PAGE. The protein was then dialyzed over buffer A to remove imidazole, and it was cleaved with thrombin protease (GE Healthcare) (10 units/mg) at room temperature for 2 h. The digested mixture was reloaded onto a Ni^2+ -nitriloacetic acid column to remove His tag and the undigested protein. The flow-through was loaded onto a Q-Sepharose HP column (GE Healthcare) and eluted with a gradient of NaCl 0–500 mM in Buffer B (20 mM Tris, 10% glycerol, 1 mM TCEP, pH 8) with a BioLogic DuoFlow FPLC system (Bio-Rad Laboratories, Italy). Finally, the protein was purified by gel-filtration chromatography on a HiLoad Superdex 75 column (GE Healthcare) and eluted with Buffer C (20 mM Tris, 1 mM TCEP, 0.5 mM EDTA, pH 8). The protein was then concentrated at 8 mg/mL using Amicon centrifugal concentrators with a 10 kDa cutoff membrane (Millipore, USA). Part of the protein was used for SPR experiments.
Surface plasmon resonance analyses were performed by using Pioneer AE optical biosensor equipped with COOH5 chips (SensiQ). PPARγ surfaces were prepared by using standard amine-coupling procedures[45] and HBS (Hepes-buffered saline: 20 mM Hepes, 150 mM sodium chloride, 0.005% P20, pH 7.4) as the running buffer. Flow cells were activated for 7 min by injecting 140 μL of 50 mM N-hydroxysuccinimide (NHS):200 mM ethyl-3(3-dimethylamino) propyl carbodiimide (EDC). Fifty μL of a 0.25 mg/mL PPARγ solution (in 10 mM sodium acetate, pH 5.0) were injected for 5 min at 10 μL/min on channels 1 and 3 (channel 2 was used as ref. [3], for a duplicate experiment), followed by a 70-μL injection of ethanolamine to block any remaining activated groups on the surface. […] The screening of the analytes (saponins and sapogenins) was performed using HBS without P20, with 1 mM DTT and 2% DMSO. To collect detailed kinetic data the OneStep[46][47][48] protocol was used, injecting the analytes at a flow rate of 50 μL/min and at the concentration of 100 μM (50 μM for 14 and 15) over the three channels at 20 °C (association phase of 180 s). Five buffer blanks were injected for double referencing . […] A DMSO calibration plot was constructed (buffer sample containing 1–3% (vol/vol) DMSO) to correct for bulk refractive index shifts[49]. Data were collected at a rate of 20 Hz. All sensorgrams were processed by using double referencing[50]. First, the responses from the reference surface (channel 2) were subtracted from the binding responses collected over the reaction surfaces to correct for bulk refractive index changes.
The test system of another data set is HepG2 cells. Briefly: MTT assay for cell viability. The data set is classed as cell-based, human. The following applies: for IC50: read-out: IC50 (concentration that reduces the cell viability by 50%). In general terms: Formazan colour is commonly taken as a measure of viable cells.
Data set [3] relates to PPARγ. On the set-up: method as in PMID 25487878. The following applies: cited from earlier work.
Data set [4] has as its target T2, PPARγ (Homo sapiens, UniProt P37231).
T2 construct: expressed in transfected cells; host or cells: HepG2
T2 sequence (P37231 238-503 limits assumed): T1 sequence (P37231 238-503 limits assumed)
Briefly: Displacement experiments against rosiglitazone (antagonist behavior, transactivation). The data set is classed as cell-based. Here is the method:
The antagonist behavior of the above compounds was also evaluated in displacement experiments against rosiglitazone.
For transactivation assays, 1·10^5 cells per well were seeded in a 96-well plate and transfected after 24 h with K2 Transfection System (Biontex Laboratories GmbH), according to the manufacturer’s protocol using 0.20 μg/well of DNA. Cells were transfected with expression plasmids encoding the fusion protein Gal4-PPARα-LBD or Gal4-PPARγ-LBD, pGal5TKpGL3, and pCMVβgal to normalize the transfection efficacy. 24 h after transfection, medium was replaced with fresh complete growth medium supplemented with test compounds (ranging from 200 nM to 100 μM), reference compounds Wy-14,643 (10 μM) and rosiglitazone (2 μM), or DMSO 0.1%. After further 24 h of incubation cells were lysed and luciferase activity in cell extracts was determined by a luminometer (VICTOR^3 V Multilabel Plate Reader, PerkinElmer, Monza, Italy) and normalized for β-galactosidase activity. Fold induction activity was calculated and plotted using GraphPad Prism5 software.

The mark [5] stands for this setting: ITC fit, OneSites model, Supplementary Fig. S3.
The mark [6] stands for this setting: SPR, 20 °C, 1:1 model, for 2:1 model fits the first value (high affinity site), error in parentheses.

“Also recorded” adds a separate entry of the source. Read-outs that look alike come from different tables or passages of the source.

Procedure for HepG2 cells: Human hepatocellular liver carcinoma cell line HepG2 (Interlab Cell Line Collection, Genoa, Italy) was cultured in Minimum Essential Medium (MEM) containing 10% heat-inactivated fetal bovine serum, 100 U·mL^−1 of penicillin G, and 100 μg·mL^−1 of streptomycin sulfate at 37 °C in a humidified atmosphere of 5% CO2.
Cell viability was measured using the MTT assay. HepG2 cells were seeded at a density of 1·10^5 cells/well into 96-well flat bottom culture plates containing test compounds (ranging from 200 nM to 100 μM final concentration), in a final volume of 100 μL. […] Control wells lacked inhibitor. After 24 h of incubation at 37 °C in a 5% CO2 atmosphere, 3-(4,5-dimethylthiazole-2-yl)-2,5-diphenyltetrazolium bromide (MTT, 5 mg/mL stock solution) was added to a final concentration of 0.5 mg/mL. To control for background absorbance, six wells of cells were lysed by adding Triton X-100 (0.1% v/v final concentration) immediately prior to the addition of MTT reagent. After incubation under the same conditions for further 3–4 h, the culture medium was removed, the insoluble product dissolved by the addition of 100 μL of solvent (50% DMSO, 50% EtOH v/v), and the absorbance of the well was measured at 570 nm using a PERKIN–ELMER Victor V^3 plate reader. Cell growth inhibition was then calculated using the following Equation,
where V% is the percentage of cell viability, A is the absorbance of treated cultures, Ab is the absorbance of background control, and Ac is the absorbance of control cultures.

Consider `CCCCC[C@H](O)/C=C/C=C\CCCCCCCC(=O)O` [13-(S)-HODE], for which, on PPARγ LBD [1] (setting [5]), the “K (association constant)” value worked out at 106000 M⁻¹, the ΔH was -2.206 kcal/mol and the ΔS is reported as 15.5 cal/mol/deg. Besides, at PPARγ LBD [1] (ITC, 22 °C), the ΔH was -2.21 kcal/mol and the “−TΔS” value was -4.56 kcal/mol. Also, the Kd at PPARγ LBD [1] (ITC, 22 °C, one-site model) turned out to be 9.4 µM.

Consider `C[C@@H]1O[C@@H](O[C@H]2[C@H](O[C@H]3[C@H](O[C@H]4CC[C@@]5(C)[C@@H](CC[C@]6(C)[C@@H]5CC=C5[C@@H]7CC(C)(C)C[C@@H](O)[C@]7(C)CC[C@]56C)[C@@]4(C)CO)O[C@H](C(=O)O)[C@@H](O)[C@@H]3O)O[C@H](CO)[C@H](O)[C@@H]2O)[C@H](O)[C@H](O)[C@H]1O` [SAP17, soyasaponin I], for which, on PPARγ LBD [2], the Koff came to 1.68 s⁻¹. This compound also yielded a Kd at PPARγ LBD [2] (Kd, SPR, 1:1 model, for 2:1 model fits the first value (high affinity site)) of 32.5 µM. Besides, the cytotoxicity result in the data set on HepG2 cells (HepG2, concentrations up to 100 μM) is “did not show cytotoxicity; also recorded: did not show any cytotoxic activity”. For the same compound, the IC50 in the data set on HepG2 cells (Homo sapiens, HepG2, 24 h) was above 100 µM.

With `CC1(C)CC[C@]2(C(=O)O)CC[C@]3(C)C(=CC[C@@H]4[C@@]5(C)CC[C@H](O)[C@@](C)(CO)[C@@H]5CC[C@]43C)[C@@H]2C1` [SAP20, hederagenin], the “affinity to the nuclear receptor” value on PPARγ LBD [2] (SPR) was “didn’t show affinity”. In addition, the dissociation constant (Kd) on PPARγ LBD [2] (SPR, 1:1 model, for 2:1 model fits the first value (high affinity site), read-out: Kd) is above 1000 µM.

Turning to `CC1(C)CC[C@]2(C(=O)O)CC[C@]3(C)C(=CCC4[C@@]5(C)C[C@H](O)[C@H](O)[C@@](C)(CO)C5CC[C@]43C)C2C1` (stereo partly drawn) [SAP21, bayogenin], at PPARγ LBD [2] (SPR), the “affinity to the nuclear receptor” value was “didn’t show affinity”.

As to `CC1(C)C[C@@H](O)[C@]2(C)CC[C@]3(C)C(=CC[C@@H]4[C@@]5(C)CC[C@H](O)[C@](C)(CO)[C@@H]5CC[C@]43C)[C@@H]2C1` [SAP24, soyasapogenol B], the “affinity to the nuclear receptor” value on PPARγ LBD [2] (SPR) is on record as “didn’t show affinity”.

With `CC(C)=CCC[C@](C)(O)[C@H]1CC[C@]2(C)[C@@H]1[C@H](O)C[C@@H]1[C@@]3(C)CC[C@H](O)C(C)(C)[C@@H]3[C@@H](O)C[C@]12C` [protopanaxatriol], in the data set on PPARγ [3], the “activity towards PPARγ” value was “antagonist activity”.

As for echinocystic acid [SAP18], the Koff at PPARγ LBD [2] (SPR, 2:1 molecular interaction model, second value in cell (second site)) was 0.715(0.002) s^−1. At PPARγ LBD [2] (setting [6]), the Koff was 0.0014 s⁻¹ and the Kon was 144.8(0.2) M^−1s^−1. The “reduction of the effects of rosiglitazone” value at PPARγ [4] (at 5 μM) was determined as 40%. Also, the “antagonist behavior towards PPARγ” value on PPARγ [4] (in words) is reported as “antagonist activity”. Also, the IC50 with HepG2 cells (HepG2, MTT, 24 h) came to 4.1 ± 0.4 µM.

One may read the Kd as the constant that tells how readily two partners part at equilibrium.

The values are drawn from PMC4901321, “Screening of saponins and sapogenins from Medicago species as potential PPARγ agonists and X-ray structure of the complex PPARγ/caulophyllogenin” (Scientific Reports, 2016).
